From US7498029B2, “Photoimmunotherapies for cancer using combination therapies” (The General Hospital Corporation, priority 2001, dated 2009)
Entries after “also recorded” stand apart in the source; their conditions may differ.

Assays:
[1] = Fluorescence decay and relative fluorescence quantum yield; format: physicochemical; details: 50% DMSO/50% aqueous solution
Experimental: In order to assess how conjugation to the antibody affected the ability of BPD to generate phototoxic species, relative fluorescence quantum yields and fluorescence decay signals for free BPD and for the various BPD PIC preparations were measured. Although fluorescence is a photophysical property of the singlet excited state of a photosensitizer, fluorescence quantum yields and decay times generally correlate with a photosensitizer's ability to generate phototoxic species. This correlation stems from the fact that a photosensitizer's phototoxic quantum yield usually correlates with its triplet quantum yield. […]
Fluorescence properties were measured in 50% DMSO/50% aqueous solutions in order to overcome the tendency of BPD to aggregate in a purely aqueous solution. Relative fluorescence quantum yields for free BPD and for various PIC samples with varying BPD:antibody molar loading ratios were calculated from the ratios of the slopes of fluorescence emission intensity versus absorbance plots. The fluorescence emission intensity versus absorbance plot for a given sample was generated by measuring the emission intensities of a series of dilute solutions prepared from a concentrated stock solution of the sample. […] Fluorescence emission intensity was measured as the area under the fluorescence emission peak in the 650 to 800 nm range. […]

[2] = Solubility and stability in DMSO/aqueous solutions and on storage; format: physicochemical; details: DMSO/aqueous solution
[3] = system: EGFR-overexpressing A-431 cells; assay: Phototoxicity and competition studies, MTT assay; format: cell-based, human; details: incubation periods much shorter than 6 hours
Experimental: Preliminary phototoxicity studies were conducted using EGFR-overexpressing A-431 cells.
Cells were plated in 2 ml of media in 35 mm tissue culture dishes at densities such that the cells reached approximately 60 to 80% confluence at the end of a three-day growth period. Following an initial period of at least 14 to 20 hours, which allowed for cells to attach and begin dividing, incubation with PICs or free BPD was initiated by replacing the original 2 ml of media with 2 to 4 ml of medium containing PIC or free BPD. Incubations were done at 37° C. and were begun with respect to the end of the three-day growth period. At the end of the three-day growth period, the medium containing PIC or free BPD was removed. Cells were washed once with 2 ml of DPBS, and 2 ml of fresh medium was added back to each dish. Cells were then immediately irradiated with the requisite light dose. Following irradiation, cells were incubated overnight at 37° C. and then assayed for viability by the calorimetric MTT assay (Mosmann, 1983). Except for the intended light dose, care was taken to protect the cells from light exposure at all times.
The radiation source was a dye laser pumped by an argon ion laser (models CR-599 and Innova 100, respectively, Coherent Inc., Palo Alto, Calif.). […]
NIH:OVCAR-5 cells [4] = assay: Long term survival, intraperitoneal ovarian carcinoma xenograft; format: in vivo, mice
Text: A different group of animals was utilized to investigate survivability. Animals with rapid tumor progression leading to uncontrollable ascites or systemic illness were sacrificed. Animals were sacrificed based on the following parameters: loss of more than 15% body weight, severe pain not relieved by analgesics, self-mutilating behavior, inability or unwillingness to eat or drink, and weight gain of more than 20% body weight. At the time of necropsy, samples were weighed and collected as previously described.

[5] = Body weight loss of xenograft mice; format: in vivo; details: before tumor cell injection to day 21
Text: Animals were weighed before tumor cell injection, and before sacrifice at day 21.

CHO-ERBB2 cells = assay: PDT/PIT phototoxicity, MTT assay, CHO-ERBB2 cells; format: cell-based; details: 140 nM, light dose of 2 J/cm^2, MTT 24 hours after illumination
Experimental: (§1) This light was focused to a spot of 3.5 cm diameter, which corresponded to a power density of circa 40 mW/cm^2.
(§2) To determine the survival fraction of cells after treatment, the 3-(4,5-dimethylthiazol-2-yl)-2,5-diphenyltetrazolium bromide (“MTT”) assay, which measured mitochondrial dehydrogenase activity, was used. Cells were incubated with 0.5 mg/ml MTT for 1 hour to measure its reduction by mitochondrial dehydrogenases.

OVCAR-5 cells = assay: PDT/PIT phototoxicity, MTT assay, OVCAR-5 cells; format: cell-based, human; details: with light, dose giving 50% survival after 24 hours, compared to control cells
Experimental: as §1, §2
The MTT assay was performed 24 and 72 hours after treatment.

EGFR = molecular target: T1, EGFR (Homo sapiens, UniProt P00533); assay: EGF-induced EGFR phosphorylation, Western blot in OVCAR 5 cells; format: cell-based; details: 10 ng/ml EGF 15 min
T1 construct: endogenous in cells; host or cells: OVCAR 5 cells
Experimental: (§3) Twenty-four hours after photodynamic treatment as described above, OVCAR 5 cells in the groups to be stimulated with EGF were incubated for 15 min with 10 ng/ml EGF in prewarmed culture medium. The groups that were not stimulated with EGF only received prewarmed culture medium. After the 15 minute incubation, cells were kept on ice and cell lysates were collected in RIPA buffer (containing 0.1% SDS and 1% NP-40). After protein determination by a modified Lowry assay (Biorad, Hercules, Calif.), the proteins were run on SDS-PAGE, transferred to a polyvinylidene diflouride (PVDF) membrane (Immobilon-P, Millipore, Bedford, Mass.) and probed with the first antibody. To detect the phosphorylation of the EGFR, the anti-phosphotyrosine antibody 4G10 (New England Biolabs; Beverly, Mass.) was used. A secondary goat anti-mouse antibody, coupled to horseradish peroxidase (Biorad), was used in combination with a chemiluminescence kit (Amersham, Arlington Heights, Ill.) to visualize the specific bands. Western blots were reprobed with anti-actin (Santa Cruz Biotechnology, Santa Cruz, Calif.) to control for equal loading.

Akt-1 = assay: EGF-induced Akt-1 phosphorylation, Western blot in OVCAR-5 cells; format: cell-based, human
Experimental: as §3
(§4) Two important pathways which are regulated by EGFR are the PI3K-Akt/PKB-1 and the Ras-MAPK/ERK pathway. These signaling molecules are implicated in a variety oncogenic pathways. […]

MAPK/ERK = assay: EGF-induced MAPK/ERK phosphorylation, Western blot in OVCAR-5 cells; format: cell-based, human
Experimental: as §3, §4

NIH:OVCAR-5 cells [6] = assay: Tumoricidal response, intraperitoneal ovarian carcinoma xenograft, tumor burden at day 21; details: for Tumor Burden: necropsy day 21; for Survival Fraction: tumor burden relative to no treatment
Experimental: NIH:OVCAR-5 cells were obtained from the Fox Chase Cancer Institute (Philadelphia, Pa.). Cells were grown in RPMI-1640 media (Mediatech Inc, Herndon, Va.) supplemented with 10% heat-inactivated fetal calf serum (GIBCO Life Technologies, Grand Island, N.Y.), and 100 U/ml penicillin and 100 μg/ml streptomycin. The cells were maintained in an incubator at 37° C. in an atmosphere of 5% CO2. At the time of NIH:OVCAR-5 cell injection, mice were given a numeric ear tag. Animals were anesthetized before the cell injection with 0.03 ml of a ketamine/xylazine mixture (ketamine, 120 mg/kg; xylazine, 15 mg/kg).
Intraperitoneal (“i.p.”) PDT in the nude mice was performed as previously described (Molpus et al., 1996a). On day 10 and 20 after tumor cell injection, mice in BPD treatment and/or control groups 2, 4, 6, and 8 were injected with 0.25 mg/kg body weight of liposomal BPD-MA i.p. 90 minutes prior to light exposure. Light was not administered to animals in groups 1, 2, 5, and 6. BPD-MA solutions were prepared immediately prior to use in sterile PBS (total of 1 ml). All work involving BPD-MA was performed in subdued lighting.
Animals which had to be illuminated were injected with 2 mL of a 0.1% intralipid solution i.p. prior to illumination to enhance light scattering. Animals were anesthetized with 0.03 ml of a ketamine/xylazine mixture (ketamine, 35 mg/ml; xylazine, 5 mg/ml). A solid state diode laser was used for illumination (BWF 690-1, B&W TEK, Newark, Del.), which delivers monochromatic light (690+/−5 nm) to overlap closely the absorption maximum of BPD-MA (690 nm), at a maximum power from the diode of 1 W. Alternatively, an argon-pumped dye laser (Coherent) was used to deliver 690 nm light i.p. via a cylindrically diffusing fiberoptic tip (8.0 mm×0.4 mm). The fiber, connected to the Argon-pumped dye laser or the solid state diode laser was introduced into the peritoneal cavity of a supine anesthetized animal via a centrally placed 22-gauge catheter traversing the abdominal cavity. A total of 20 J of light was delivered, at a fluence rate of 100-200 mw/cm^2. Of the total light energy, one fourth (5 J) was delivered to each i.p. quadrant over equivalent time periods. At the completion of the treatment, the mice were allowed to recover in an animal warmer until they awoke and resumed normal activity.
Two endpoints were studied. The first endpoint studied was short-term tumor weight. The second endpoint studied was long-term survival. In the short-term tumor weight studies, animals were sacrificed on day 21 to assess acute treatment effects. Animals were also carefully examined for the presence of distinct extra-abdominal metastasis. Representative tissue samples were examined pathologically via hematoxylin and eosin staining.
Tumoricidal response was assessed by comparing the extent of gross residual disease in treated animals to the extent of disease in untreated controls. Using the distribution pattern of the tumor in the OVCAR-5 human xenograft mouse model, which 20 was previously described (Molpus et al., 1996b), the sites where tumor was consistently present were dissected.

[7] = no light, BPD […] i.p. days 10, 20, C225 0.5 mg i.p. days 11, 14, 17, 19
[8] = with light (20 J, 690 nm i.p.), same doses

BPD Verteporfin
weighted-average fluorescence decay lifetime ([1]; emission 700 nm): 6.02 ns | relative fluorescence quantum yield ([1]; excitation 428 nm): 1.00 | DMSO content above which free BPD goes from predominantly aggregated to predominantly disaggregated monomeric state [2]: > 40% | phototoxic cell killing [3]: greater than 90% | survival compared with untreated mice (NIH:OVCAR-5 cells [4]; comparison of survival curves, PDT and combination with light, C225 alone without): significantly longer survival rates | mice still alive after 6 months (180 days) (NIH:OVCAR-5 cells [4]; with light, 9 mice per group): 10% | 50% alive (NIH:OVCAR-5 cells [4]; with light, days on which 50% of the mice have died): 36 (CI 32-90) days | Weight Loss In Grams [5, 7]: 2.01 Grams | Weight Loss In Grams [5, 8]: 2.14 Grams | viability (CHO-ERBB2 cells): less than 20% | increase in MTT activity between the 24 and 72 hours time-point (OVCAR-5 cells): 15% | EGF-induced EGFR phosphorylation (EGFR; 140 nM alone, no light): reacted like control cells | EGF-induced EGFR phosphorylation (EGFR; 140 nM plus light): did not inhibit; also recorded: no inhibitory effect | EGF-induced phosphorylation of Akt-1 (Akt-1; alone, no light): responded like control cells | EGF-induced phosphorylation of Akt-1 (Akt-1; plus light): did not have an inhibitory effect; also recorded: not by treatment with BPD plus light | EGF-induced phosphorylation of MAPK/ERK (MAPK/ERK; alone, no light): responded like control cells | EGF-induced phosphorylation of MAPK/ERK (MAPK/ERK; plus light): did not have an inhibitory effect; also recorded: not by treatment with BPD plus light | DL (NIH:OVCAR-5 cells [6]; Steel-Peckham interaction of the components in the formula, with light (hv)): 0.493 | Effect (NIH:OVCAR-5 cells [6]; Steel-Peckham interaction, with light (hv)): synergistic | lnSF (NIH:OVCAR-5 cells [6]; no light): −0.4084 | Tumor Burden (NIH:OVCAR-5 cells [6]; [7]): 469 mg | Survival Fraction (NIH:OVCAR-5 cells [6]; no light): 0.69 | lnSF (NIH:OVCAR-5 cells [6]; with light): −0.962 | Tumor Burden (NIH:OVCAR-5 cells [6]; [8]): 261 mg | tumor burden as % of the no treatment control group (NIH:OVCAR-5 cells [6]; with light, day 21): 38% | tumor burden in the bowel mesentery (NIH:OVCAR-5 cells [6]; with light, day 21): statistically significant reduction in tumor burden | Survival Fraction (NIH:OVCAR-5 cells [6]; with light): 0.38
